The target in assay [1] is T1, human FSH receptor (Homo sapiens, UniProt P23945).
T1 construct: host or cells: CHO-K1 (CHO FSH-R 6CRE-Luc, 1D7 cells)
T1 sequence (P23945 18-695): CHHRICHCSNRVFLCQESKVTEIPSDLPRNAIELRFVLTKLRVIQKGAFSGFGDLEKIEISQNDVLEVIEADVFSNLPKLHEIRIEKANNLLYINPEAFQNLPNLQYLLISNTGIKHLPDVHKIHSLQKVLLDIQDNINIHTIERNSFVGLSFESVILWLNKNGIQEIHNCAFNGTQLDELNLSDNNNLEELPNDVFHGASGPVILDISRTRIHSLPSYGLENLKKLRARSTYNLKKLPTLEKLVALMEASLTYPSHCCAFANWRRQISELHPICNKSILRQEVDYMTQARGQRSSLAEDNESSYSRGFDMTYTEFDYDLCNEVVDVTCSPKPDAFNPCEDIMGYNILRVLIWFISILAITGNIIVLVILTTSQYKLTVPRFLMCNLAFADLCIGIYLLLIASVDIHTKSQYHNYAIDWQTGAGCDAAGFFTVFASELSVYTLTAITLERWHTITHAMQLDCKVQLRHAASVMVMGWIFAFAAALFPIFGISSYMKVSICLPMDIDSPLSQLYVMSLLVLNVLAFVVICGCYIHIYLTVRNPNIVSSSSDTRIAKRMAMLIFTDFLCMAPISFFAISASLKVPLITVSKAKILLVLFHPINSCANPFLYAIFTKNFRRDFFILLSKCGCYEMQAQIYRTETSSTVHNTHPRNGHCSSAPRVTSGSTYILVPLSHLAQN
The experiment in a line: FSH receptor-dependent CRE-luciferase reporter gene assay (CHO FSH-R 6CRE-Luc cells). In kind it is cell-based. The note with it: dose-response in presence of EC50 of purified human FSH; read-out: CRE IC50. The source says: Follicle-Stimulating Hormone Receptor-Dependent CRE-Luciferase Reporter Gene Assay for the Identification of Follicle-Stimulating Hormone (FSH) Antagonists
This procedure was used to identify and determine the relative potencies of human FSH receptor antagonists using a Chinese hamster ovarian cell line that stably produces the human FSH receptor and a luciferase reporter gene regulated by cAMP response elements.
The compounds were subsequently diluted in DMSO to working dilutions of 1 and 20 or 30 mM for 2-dose testing format and 1 μM-10 mM for dose-response format. The DMSO dilutions were diluted 500-fold in sterile growth medium [D-MEM/F-12 (GIBCO/BRL; Grand Island N.Y.) containing 15 mM HEPES, 2 mM 1-glutamine, pyridoxine hydrochloride, phenol red and 5% FetalClone II (HyClone Laboratories, Inc; Logan, Utah), 0.2% DMSO, 100 units penicillin G/ml, and 100 μg streptomycin sulfate/ml (GIBCO/BRL)]. The concentration of the vehicle in each of the compound dilutions was the same. • Positive Controls: Purified human FSH (>98%) was purchased from Cortex Biochem, Inc. (San Leandro, Calif.) and WAY-162002 (an FSH-R thiazolidinone antagonist) was obtained from the Wyeth Research compound repository. Preparation of Cells
The CHO FSH-R 6CRE-Luc cells (1D7 cells) were obtained from Affymax (Palo Alto, Calif.). These Chinese hamster ovary cells (CHO—K1) were genetically engineered to stably express the recombinant human FSH receptor gene and a luciferase reporter gene under the regulation of 6 copies of a cAMP response element. The cells were plated one day prior to treatment into 96-well white opaque plates at a density of 50,000 cells/100 μl/well in growth medium. On the day of treatment, the growth medium was removed from the wells by aspiration and 50 μl of fresh growth medium was added to each well. The cells were incubated at 37° C. in a humidified incubator with 5% CO2/95% air.
The treated cells were incubated for 4 hours at 37° C. in a humidified incubator with 5% CO2/95% air. At the end of-the incubation period, luciferase activity was measured by chemiluminescence using a commercially available kit (LucScreen, Tropix, Inc., Bedford, Mass.) according to the manufacturer's specifications, except that Buffer 1 and Buffer 2 were mixed together in equal proportion prior to the addition of 100 μl of the combined reagents to each well. Chemiluminescence was detected using a luminometer (EG & G Berthold Microlumat LB 96 P, Wallac, Gaithersburg, Md.) with chemiluminescence measured for 1 sec/well. Background luminescence was measured for each well prior to the addition of the LucScreen reagent.
In the 96-well 2-dose format, each compound was tested in duplicate at each dose. […] One plate was used to test a maximum of 22 compounds.
The EC50 of purified human FSH alone was tested in triplicate with each test compound. The doses chosen to test each compound were extrapolated from the initial 2-dose screening process. Along with the test compounds, purified human FSH was also tested in a dose response (0.03, 0.1, 0.3, 1, 3, 10, and 30 ng/ml) for a positive control and quality control. One plate was used for 3 test compounds and the FSH positive control.
Luciferase activity is expressed as relative light units/sec/well. Luciferase activity in antagonist was compared to the appropriate negative and positive controls. For 2-dose testing, results are reported as luciferase activity and are expressed as % inhibition of the response obtained from the EC50 of FSH. For dose-response testing, results are reported as IC50 values. Data were analyzed statistically by one-way analysis of variance with appropriate weighting and transformation and relevant paired test as determined by Biometrics (Wyeth Research, Princeton, N.J.). IC50 values were calculated using the Stat/Excel program developed by Biometrics with appropriate weighting and transformation.

Assay [2] deals with T2, hFSH-R (Homo sapiens, UniProt P23945).
T2 construct: expressed in transfected cells; host or cells: CHO-3D2 cells
T2 sequence (P23945 18-695): T1 sequence (P23945 18-695)
The experiment in a line: cAMP accumulation bio-assay in CHO-3D2 cells (hFSH-R), RIA. In kind it is cell-based. How it is done:
The compounds were subsequently diluted in sterile assay medium consisting of Opti-MEM® I (Life Technologies) with 0.1% (w/v) BSA (Sigma), prior to use in the bio-assay. The final concentration of DMSO in the assay is 0.1%.
Plated cells are then incubated at 37° C. in a humidified 5% CO2/95% air, atmosphere.
On the day of the assay, cells were washed three times with 100 μl/well of assay medium consisting of Opti-MEM® I (Life Technologies) with 0.1% (w/v) BSA (Sigma). Medium was removed and 100 μl of assay medium was added to each well. Plates were incubated for an additional 30 minutes at 37° C. […] Reactions were terminated by the addition of 50 μl of 0.2N hydrochloric acid to each well and cAMP-accumulation was measured by radioimmunoassay (RIA) using a commercially available kit (Amersham).
All test compounds were evaluated in a dose-response paradigm ranging from 0.01 to 30 μM. Controls and test compounds were evaluated in quadruplicate in a 96-well format.
Data were analyzed by one-way analysis of variance and significant differences between treatments and control determined by Least Significant Difference test.
Test compounds were compared to the effect of purified human FSH.
(Cyclic AMP is a second messenger, typically raised through Gs and lowered through Gi signalling.)

Structures are written as SMILES.

As a reminder, the IC50 is the midpoint of a concentration-inhibition curve.

`COc1ccccc1-c1ccc(C(=O)N2Cc3ccc(C(=O)CCc4cccnc4)n3Cc3ccccc32)cc1` [Example 3, 1-{10-[(2′-Methoxy-1,1′-biphenyl-4-yl)carbonyl]-10,11-dihydro-5H-pyrrolo[2,1-c][1,4]benzodiazepin-3-yl}-3-pyridin-3-ylpropan-1-one]: the IC50 in assay [1] is 6.82 µM; in assay [2] it was 2 µM. Besides, the Emax in assay [2] (read-out: cAMP % efficacy) amounted to 78%.
